The text below walks through data of patent publication US20160115225A1, “Methods of Reducing Methylglyoxal (MGO) Modification of Recombinant Proteins in Cell Culture” (AbbVie Inc., priority 2014, published 2016).

Common to all, as to assay type: cell-based
Assay [1] deals with adalimumab producing cell line 1. The experiment in a line: Cell growth, viability and titer, bioreactor culture, cell line 1. Conditions: Example 2; 2DDG 0.25 g/l; versus control. How it is done: For the bioreactor (3 L Applikon) experiments (Examples 1, 2 and 3), 3 L, bioreactors (1.5 L working volume) were initiated at 35° C. (cell line 1) and 36° C. (cell line 2), 30% DO, 200 rpm, pH of 7.1. In some of the conditions, pH was ramped down to 6.8 in three days and kept at pH 6.8 thereafter. The inclusion of pH ramp for a particular condition is indicated by the final pH in the experimental design. If the final pH is 7.1, then it indicates no pH ramp was performed, whereas if the final pH is 6.8, a pH ramp was performed on day 3 from pH 7.1 to pH 6.8. In some of the conditions, a temperature shift was performed. When temperature shift was performed, the temperature was lowered to 33° C. Again, the conditions where such a temperature shift was performed can be identified from the final temperature in the experimental design. Cultures were run in extended batch mode with the addition of a desired amount of 40% glucose stock solution was fed based on glucose measurements. […]
The cells were grown to maximum viable cell densities (VCD) in the range of 10-14×10^6 cells/ml for the different conditions tested. […] Samples were subsequently analyzed using Poros A for titer and WCX-10 post protein A purification. Based on the WCX-10 chromatograms, the percentages of total peak(s) area corresponding to the acidic species were quantified. […]

The subject of assay [2] is adalimumab producing cell line 2. The experiment in a line: Glucose consumption of the culture, cell line 2. Conditions: Example 4. As for the experimental part: For the bioreactor (3 L Applikon) experiments (Examples 1, 2 and 3), 3 L, bioreactors (1.5 L working volume) were initiated at 35° C. (cell line 1) and 36° C. (cell line 2), 30% DO, 200 rpm, pH of 7.1. In some of the conditions, pH was ramped down to 6.8 in three days and kept at pH 6.8 thereafter. The inclusion of pH ramp for a particular condition is indicated by the final pH in the experimental design. If the final pH is 7.1, then it indicates no pH ramp was performed, whereas if the final pH is 6.8, a pH ramp was performed on day 3 from pH 7.1 to pH 6.8. In some of the conditions, a temperature shift was performed. When temperature shift was performed, the temperature was lowered to 33° C. Again, the conditions where such a temperature shift was performed can be identified from the final temperature in the experimental design. Cultures were run in extended batch mode with the addition of a desired amount of 40% glucose stock solution was fed based on glucose measurements.
The objective of this experiment was to further evaluate the control of MGO synthesis/MGO protein modification through reduced glucose consumption in a different cell line, Cell line 2. […] As described in Example 3, extracellular MGO quantification was performed for day 7, 8 and 9 for the samples below and percentage of acidic species were quantified using WCX-10 analysis post protein A of cell culture harvests. […]

Assay [3] shares this test system. The experiment in a line: WCX-10 quantification of acidic species of adalimumab, bioreactor culture, cell line 2. Conditions: Example 4; 0.15 g/l 2DDG; control 29.8%. As for the experimental part:
Two adalimumab producing cell lines were employed in the studies covered here. Upon thaw, cells were cultured in their respective growth media in a combination of vented non-baffled shake flasks (Corning) on a shaker platform at 110 RPM (cell line 1) and 140 RPM (cell line 2) and 10 L or 20 L wave bags (GE). Cultures were propagated in a 35° C., 5% CO2 incubator for cell line 1 and 36° C., 5% CO2 incubator for cell line 2 to obtain the required number of cells to be able to initiate production stage cultures.
For the bioreactor (3 L Applikon) experiments (Examples 1, 2 and 3), 3 L, bioreactors (1.5 L working volume) were initiated at 35° C. (cell line 1) and 36° C. (cell line 2), 30% DO, 200 rpm, pH of 7.1. […]
This method is employed towards the quantification of the acidic species and other charge variants present in cell culture harvest samples. […]
Quantitation is based on the relative area percent of detected peaks. […]
The objective of this experiment was to further evaluate the control of MGO synthesis/MGO protein modification through reduced glucose consumption in a different cell line, Cell line 2. […] As described in Example 3, extracellular MGO quantification was performed for day 7, 8 and 9 for the samples below and percentage of acidic species were quantified using WCX-10 analysis post protein A of cell culture harvests.

For `O=CC[C@@H](O)[C@H](O)[C@H](O)CO` [Test 2DDG, 2-Deoxy-D-Glucose], the “cell growth and viability profile” value in assay [1] is “slight increase”. Further, the glucose consumption rate entry in assay [2] (0.05 g/l 2DDG, compared to control) is given as “not significantly lower”. In addition, the glucose consumption entry in assay [2] (0.15 g/l 2DDG) is “reduction”. For the same molecule, in assay [3], the “percentage of acidic species” value was determined as 27.2%.
